US9550754B2, “4,5-dihydropyrazole derivatives, pharmaceutical compositions containing them, and their use in therapy” (ABBVIE DEUTSCHLAND GMBH & CO. KG, priority 2014, dated 2017)

Molecular target: T1, human GlyT1c transporter (Homo sapiens, UniProt P48067)
T1 construct: expressed in transfected cells; host or cells: recombinant CHO cells (membranes); the line hGlyT1c_5_CHO is named only for the uptake assay
T1 sequence (P48067 1-706): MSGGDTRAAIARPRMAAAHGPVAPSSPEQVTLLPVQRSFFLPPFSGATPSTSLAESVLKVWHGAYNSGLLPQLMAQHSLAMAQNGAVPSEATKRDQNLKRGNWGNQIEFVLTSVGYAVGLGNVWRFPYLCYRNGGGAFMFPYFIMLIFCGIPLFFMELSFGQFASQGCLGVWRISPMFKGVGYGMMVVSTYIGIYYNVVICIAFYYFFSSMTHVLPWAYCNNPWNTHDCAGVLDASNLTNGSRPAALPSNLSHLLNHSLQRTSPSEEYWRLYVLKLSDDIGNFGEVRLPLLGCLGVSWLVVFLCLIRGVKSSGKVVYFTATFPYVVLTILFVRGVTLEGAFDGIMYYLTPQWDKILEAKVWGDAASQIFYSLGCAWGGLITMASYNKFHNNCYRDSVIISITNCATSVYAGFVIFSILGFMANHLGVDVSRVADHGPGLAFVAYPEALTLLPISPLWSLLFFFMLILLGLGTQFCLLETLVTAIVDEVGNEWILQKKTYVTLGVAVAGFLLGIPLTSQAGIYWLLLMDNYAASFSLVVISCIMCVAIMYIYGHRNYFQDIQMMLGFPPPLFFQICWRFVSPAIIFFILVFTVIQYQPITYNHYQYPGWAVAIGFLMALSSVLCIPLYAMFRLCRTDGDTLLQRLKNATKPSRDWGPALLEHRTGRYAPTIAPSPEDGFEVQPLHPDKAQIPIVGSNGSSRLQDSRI
Experiment: Radioligand binding assay using recombinant CHO cell membranes expressing human GlyT1
Conditions: apparent Ki, read-out: Kiapp (Inhibition of GlyT1 radioligand binding)
Procedure: 2. Radioligand Binding Assays Using Recombinant CHO Cell Membranes Expressing Human GlyT1:
Radioligand binding to human GlyT1c transporter-expressing membranes was carried out as described in Mezler et al., Molecular Pharmacology 74:1705-1715, 2008.

Cn1cnc(S(=O)(=O)N2CC(c3ccccc3)C(c3ccccn3)=N2)c1 (stereo not shown) [Example 18, 2-{1-[(1-methyl-1H-imidazol-4-yl)sulfonyl]-4-phenyl-4,5-dihydro-1H-pyrazol-3-yl}pyridine]
Ki: ≤ 10 µM

Cn1cnc(S(=O)(=O)N2CC(c3ccc(F)cc3)C(c3cccc(C(F)(F)F)c3)=N2)c1 (stereo not shown) [Example 8, 4-(4-fluorophenyl)-1-[(1-methyl-1H-imidazol-4-yl)sulfonyl]-3-[3-(trifluoromethyl)phenyl]-4,5-dihydro-1H-pyrazole]
Ki: ≤ 0.1 µM

Cn1cnc(S(=O)(=O)N2CC(c3ccccc3)C(c3ccc(Cl)cc3)=N2)c1 (single isomer, unassigned) [Example 16b, 3-(4-chlorophenyl)-1-[(1-methyl-1H-imidazol-4-yl)sulfonyl]-4-phenyl-4,5-dihydro-1H-pyrazole]
Ki: ≤ 10 µM

Cn1cc(S(=O)(=O)N2CC(c3ccc(F)cc3)C(c3ccccc3)=N2)cn1 (stereo not shown) [Example 9, 4-{[4-(4-fluorophenyl)-3-phenyl-4,5-dihydro-1H-pyrazol-1-yl]sulfonyl}-1-methyl-1H-pyrazole]
Ki: ≥ 10 µM

CC(C)CC1=NN(S(=O)(=O)c2cn(C)cn2)CC1c1ccccc1 (stereo not shown) [Example 17, 1-[(1-methyl-1H-imidazol-4-yl)sulfonyl]-3-(2-methylpropyl)-4-phenyl-4,5-dihydro-1H-pyrazole]
Ki: ≤ 10 µM

Cn1cnc(S(=O)(=O)N2CC(c3ccccc3)C(c3cc(C(F)(F)F)ccn3)=N2)c1 (stereo not shown) [Example 21, 2-{1-[(1-methyl-1H-imidazol-4-yl)sulfonyl]-4-phenyl-4,5-dihydro-1H-pyrazol-3-yl}-4-(trifluoromethyl)pyridine]
Ki: ≤ 10 µM

Cn1cc(S(=O)(=O)N2CC(c3ccc(F)cc3)C(c3cccc(C(F)(F)F)c3)=N2)nn1 (stereo not shown) [Example 1, 4-({4-(4-fluorophenyl)-3-[3-(trifluoromethyl)phenyl]-4,5-dihydro-1H-pyrazol-1-yl}sulfonyl)-1-methyl-1H-1,2,3-triazole]
Ki: ≤ 10 µM

Cn1cc(S(=O)(=O)N2CC(c3ccc(F)cc3)C(c3cccc(C(F)(F)F)c3)=N2)cn1 (stereo not shown) [Example 10, 4-({4-(4-fluorophenyl)-3-[3-(trifluoromethyl)phenyl]-4,5-dihydro-1H-pyrazol-1-yl}sulfonyl)-1-methyl-1H-pyrazole]
Ki: ≤ 10 µM

Cn1cc(S(=O)(=O)N2CC(c3ccccc3)C(c3cc(C(F)(F)F)ccn3)=N2)cn1 (stereo not shown) [Example 22, 2-{1-[(1-methyl-1H-pyrazol-4-yl)sulfonyl]-4-phenyl-4,5-dihydro-1H-pyrazol-3-yl}-4-(trifluoromethyl)pyridine]
Ki: ≤ 10 µM

Cn1cc(S(=O)(=O)N2CC(c3ccc(F)cc3)C(c3ccccc3)=N2)nn1 (stereo not shown) [Example 3, 4-{[4-(4-fluorophenyl)-3-phenyl-4,5-dihydro-1H-pyrazol-1-yl]sulfonyl}-1-methyl-1H-1,2,3-triazole]
Ki: ≤ 0.1 µM

Cn1cc(S(=O)(=O)N2CC(c3ccc(Cl)cc3)C(c3ccccc3)=N2)cn1 (stereo not shown) [Example 26, 4-{[4-(4-chlorophenyl)-3-phenyl-4,5-dihydro-1H-pyrazol-1-yl]sulfonyl}-1-methyl-1H-pyrazole]
Ki: ≤ 10 µM

Cn1cnc(S(=O)(=O)N2CC(c3cccc(Cl)c3)C(c3ccccc3)=N2)c1 (stereo not shown) [Example 30, 4-(3-chlorophenyl)-1-[(1-methyl-1H-imidazol-4-yl)sulfonyl]-3-phenyl-4,5-dihydro-1H-pyrazole]
Ki: ≤ 0.1 µM

Cn1cc(S(=O)(=O)N2CC(c3cccc(C#N)c3)C(c3ccccc3)=N2)nn1 (stereo not shown) [Example 28, 3-{1-[(1-methyl-1H-1,2,3-triazol-4-yl)sulfonyl]-3-phenyl-4,5-dihydro-1H-pyrazol-4-yl}benzonitrile]
Ki: ≤ 1 µM

Cn1cnc(S(=O)(=O)N2CC(c3ccccc3)C(c3ccc(Cl)cc3)=N2)c1 (stereo not shown) [Example 2, 3-(4-chlorophenyl)-1-[(1-methyl-1H-imidazol-4-yl)sulfonyl]-4-phenyl-4,5-dihydro-1H-pyrazole]
Ki: ≤ 0.1 µM

Cn1cc(S(=O)(=O)N2CC(c3ccc(F)cc3)C(c3cccc(Cl)c3)=N2)cn1 (stereo not shown) [Example 7, 4-{[3-(3-chlorophenyl)-4-(4-fluorophenyl)-4,5-dihydro-1H-pyrazol-1-yl]sulfonyl}-1-methyl-1H-pyrazole]
Ki: ≤ 0.01 µM

Cn1cnc(S(=O)(=O)N2CC(c3ccc(F)cc3)C(c3cccc(Cl)c3)=N2)c1 (stereo not shown) [Example 5, 3-(3-chlorophenyl)-4-(4-fluorophenyl)-1-[(1-methyl-1H-imidazol-4-yl)sulfonyl]-4,5-dihydro-1H-pyrazole]
Ki: ≤ 1 µM

Cn1cc(S(=O)(=O)N2CC(c3ccccc3)C(c3ccc(Cl)cc3)=N2)cn1 (stereo not shown) [Example 11, 4-{[3-(4-chlorophenyl)-4-phenyl-4,5-dihydro-1H-pyrazol-1-yl]sulfonyl}-1-methyl-1H-pyrazole]
Ki: ≤ 10 µM

Cn1cc(S(=O)(=O)N2CC(c3ccccc3)C(c3cc(C(F)(F)F)ccn3)=N2)nn1 (stereo not shown) [Example 23, 2-{1-[(1-methyl-1H-1,2,3-triazol-4-yl)sulfonyl]-4-phenyl-4,5-dihydro-1H-pyrazol-3-yl}-4-(trifluoromethyl)pyridine]
Ki: ≤ 10 µM

Cn1cc(S(=O)(=O)N2CC(c3ccccc3)C(c3cccc(OC(F)(F)F)c3)=N2)cn1 (stereo not shown) [Example 14, 1-methyl-4-({4-phenyl-3-[3-(trifluoromethoxy)phenyl]-4,5-dihydro-1H-pyrazol-1-yl}sulfonyl)-1H-pyrazole]
Ki: ≤ 10 µM

Cn1cc(S(=O)(=O)N2CC(c3ccc(F)cc3)C(c3cccc(Cl)c3)=N2)nn1 (stereo not shown) [Example 6, 4-{[3-(3-chlorophenyl)-4-(4-fluorophenyl)-4,5-dihydro-1H-pyrazol-1-yl]sulfonyl}-1-methyl-1H-1,2,3-triazole]
Ki: ≤ 0.1 µM

Cn1cc(S(=O)(=O)N2CC(c3cccc(Cl)c3)C(c3ccccc3)=N2)cn1 (stereo not shown) [Example 29, 4-{[4-(3-chlorophenyl)-3-phenyl-4,5-dihydro-1H-pyrazol-1-yl]sulfonyl}-1-methyl-1H-pyrazole]
Ki: ≤ 10 µM

Cn1cnc(S(=O)(=O)N2CC(c3ccc(F)cc3)C(c3ccccc3)=N2)c1 (stereo not shown) [Example 4, 4-(4-fluorophenyl)-1-[(1-methyl-1H-imidazol-4-yl)sulfonyl]-3-phenyl-4,5-dihydro-1H-pyrazole]
Ki: ≤ 1 µM

Cn1cnc(S(=O)(=O)N2CC(c3cccc(C#N)c3)C(c3ccccc3)=N2)c1 (stereo not shown) [Example 25, 3-{1-[(1-methyl-1H-imidazol-4-yl)sulfonyl]-3-phenyl-4,5-dihydro-1H-pyrazol-4-yl}benzonitrile]
Ki: ≤ 10 µM

Cn1cnc(S(=O)(=O)N2CC(c3ccccc3)C(c3ccc(Cl)cc3)=N2)c1 (single isomer, unassigned) [Example 16a, 3-(4-chlorophenyl)-1-[(1-methyl-1H-imidazol-4-yl)sulfonyl]-4-phenyl-4,5-dihydro-1H-pyrazole]
Ki: ≤ 0.01 µM

Cn1cnc(S(=O)(=O)N2CC(c3ccccc3)C(c3cccc(OC(F)(F)F)c3)=N2)c1 (stereo not shown) [Example 13, 1-[(1-methyl-1H-imidazol-4-yl)sulfonyl]-4-phenyl-3-[3-(trifluoromethoxy)-phenyl]-4,5-dihydro-1H-pyrazole]
Ki: ≤ 0.1 µM

Cn1cc(S(=O)(=O)N2CC(c3ccccc3)C(c3ccccn3)=N2)cn1 (stereo not shown) [Example 19, 2-{1-[(1-methyl-1H-pyrazol-4-yl)sulfonyl]-4-phenyl-4,5-dihydro-1H-pyrazol-3-yl}pyridine]
Ki: ≥ 10 µM

Cn1cc(S(=O)(=O)N2CC(c3ccccc3)C(c3ccccn3)=N2)nn1 (stereo not shown) [Example 20, 2-{1-[(1-methyl-1H-1,2,3-triazol-4-yl)sulfonyl]-4-phenyl-4,5-dihydro-1H-pyrazol-3-yl}pyridine]
Ki: ≤ 10 µM

Cn1cc(S(=O)(=O)N2CC(c3ccccc3)C(c3cccc(OC(F)(F)F)c3)=N2)nn1 (stereo not shown) [Example 15, 1-methyl-4-({4-phenyl-3-[3-(trifluoromethoxy)phenyl]-4,5-dihydro-1H-pyrazol-1-yl}sulfonyl)-1H-1,2,3-triazole]
Ki: ≤ 0.1 µM

Cn1cc(S(=O)(=O)N2CC(c3ccc(Cl)cc3)C(c3ccccc3)=N2)nn1 (stereo not shown) [Example 27, 4-{[4-(4-chlorophenyl)-3-phenyl-4,5-dihydro-1H-pyrazol-1-yl]sulfonyl}-1-methyl-1H-1,2,3-triazole]
Ki: ≤ 1 µM

Cn1cc(S(=O)(=O)N2CC(c3ccccc3)C(c3ccc(Cl)cc3)=N2)nn1 (stereo not shown) [Example 12, 4-{[3-(4-chlorophenyl)-4-phenyl-4,5-dihydro-1H-pyrazol-1-yl]sulfonyl}-1-methyl-1H-1,2,3-triazole]
Ki: ≤ 0.01 µM

Cn1cnc(S(=O)(=O)N2CC(c3ccc(Cl)cc3)C(c3ccccc3)=N2)c1 (stereo not shown) [Example 24, 4-(4-chlorophenyl)-1-[(1-methyl-1H-imidazol-4-yl)sulfonyl]-3-phenyl-4,5-dihydro-1H-pyrazole]
Ki: ≤ 1 µM
